Reference: PubChem BioAssay AID248 (DTP/NCI, 2004)
“And” between values parts separate entries of the source, which are not always exact repeats. Identical values can stand only once. Inconclusive results and toxic doses are left out. No stated cut-off is given here; in the data, active means T/C of 150% or more; inactive means T/C below 125%.

Tested on: L1210 leukemia ip in BDF1 mice, survival T/C
Experiment: NCI In Vivo Anticancer Drug Screen. Data for tumor model L1210 Leukemia (intraperitoneal) in B6D2F1 (BDF1) mice
Details: endpoint: mean survival time, higher = longer survival
Summary of the method: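 Value reflects the ratio of survival in compound-treated mice to survival in vehicle-treated controls, with both groups carrying the same transplanted tumor.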

[1] = dose: 100.0 mg/kg/injection, schedule: Q04DX003 (ip), vehicle: saline
[2] = dose: 200.0 mg/kg/injection, schedule: Q04DX003 (ip), vehicle: saline
[3] = dose: 400.0 mg/kg/injection, schedule: Q04DX003 (ip), vehicle: saline
[4] = dose: 100.0 mg/kg/injection, schedule: Q01DX009 (ip), vehicle: saline with Tween-80
[5] = dose: 200.0 mg/kg/injection, schedule: Q01DX009 (ip), vehicle: saline with Tween-80
[6] = dose: 400.0 mg/kg/injection, schedule: Q01DX009 (ip), vehicle: saline with Tween-80
[7] = dose: 400.0 mg/kg/injection, schedule: Q04DX002 (ip), vehicle: saline with Tween-80
[8] = dose: 100.0 mg/kg/injection, schedule: Q01DX009 (ip), vehicle: Klucel (hydroxypropylcellulose) (HPC)
[9] = dose: 200.0 mg/kg/injection, schedule: Q01DX009 (ip), vehicle: Klucel (hydroxypropylcellulose) (HPC)
[10] = dose: 100.0 mg/kg/injection, schedule: Q01DX001 (ip), vehicle: saline
[11] = dose: 200.0 mg/kg/injection, schedule: Q01DX001 (ip), vehicle: saline
[12] = dose: 400.0 mg/kg/injection, schedule: Q01DX001 (ip), vehicle: saline
[13] = dose: 100.0 mg/kg/injection, schedule: Q04DX003 (ip), vehicle: Klucel (hydroxypropylcellulose) (HPC)
[14] = dose: 200.0 mg/kg/injection, schedule: Q04DX003 (ip), vehicle: Klucel (hydroxypropylcellulose) (HPC)
[15] = dose: 400.0 mg/kg/injection, schedule: Q04DX003 (ip), vehicle: Klucel (hydroxypropylcellulose) (HPC)
[16] = dose: 100.0 mg/kg/injection, schedule: Q01DX001 (ip), vehicle: Klucel (hydroxypropylcellulose) (HPC)
[17] = dose: 200.0 mg/kg/injection, schedule: Q01DX001 (ip), vehicle: Klucel (hydroxypropylcellulose) (HPC)
[18] = dose: 400.0 mg/kg/injection, schedule: Q01DX001 (ip), vehicle: Klucel (hydroxypropylcellulose) (HPC)

Measured: T/C

CCCC/C(=N\N=C(N)N)c1ccc(F)cc1
inactive: dose: 15.0 mg/kg/injection, schedule: Q01DX Z (ip), vehicle: methylcellulose (MC) 104 % of control | dose: 15.0 mg/kg/injection, schedule: Q01DX Z (oral), vehicle: methylcellulose (MC) 94 % of control | dose: 30.0 mg/kg/injection, schedule: Q01DX Z (ip), vehicle: methylcellulose (MC) 93 % of control | dose: 30.0 mg/kg/injection, schedule: Q01DX Z (oral), vehicle: methylcellulose (MC) 94 % of control

Cc1sc2ccccc2[n+]1CCC(=O)O
inactive: dose: 100.0 mg/kg/injection, schedule: Q01DX009 (ip), vehicle: gum acacia 94 % of control | dose: 100.0 mg/kg/injection, schedule: Q04DX003 (ip), vehicle: gum acacia 95 % of control | dose: 200.0 mg/kg/injection, schedule: Q01DX009 (ip), vehicle: gum acacia 101 % of control | dose: 200.0 mg/kg/injection, schedule: Q04DX003 (ip), vehicle: gum acacia 96 % of control | dose: 400.0 mg/kg/injection, schedule: Q01DX009 (ip), vehicle: gum acacia 100 % of control | dose: 400.0 mg/kg/injection, schedule: Q04DX003 (ip), vehicle: gum acacia 95 % of control

COC(=O)Nc1c(C)cc(C)cc1C
inactive: [1] 94 % of control | [2] 94 % of control | [3] 98 % of control

FC(F)(F)c1cccc(NC(=S)Nc2ccccc2S)c1
inactive: [4] 103 % of control | dose: 100.0 mg/kg/injection, schedule: Q04DX002 (ip), vehicle: saline with Tween-80 93 % of control | [5] 98 % of control | dose: 200.0 mg/kg/injection, schedule: Q04DX002 (ip), vehicle: saline with Tween-80 96 % of control | [6] 124 % of control | [7] 101 % of control

CCCCCCCCCC(=O)N/N=C/c1ccncc1
inactive: [8] 89 % of control | [9] 103 % of control

CC(=O)C(O)COP(=O)(O)O (stereo unspecified)
inactive: dose: 50.0 mg/kg/injection, schedule: Q01DX001 (ip), vehicle: saline 96 % of control | [10] 100 % of control | [11] 102 % of control | [12] 100 % of control

O=C(COc1cccc(Cl)c1)Nc1ccccc1
inactive: [4] 94 % of control | [5] 100 % of control | [6] 89 % of control

O=S(Cc1ccc(Cl)cc1)c1ccc(Cl)cc1 (stereo unspecified)
inactive: [13] 97 % of control | [14] 90 % of control | [15] 104 % of control

CC1C2C(=O)C3(C(C)C(=O)O)CCC2(C)C3CC12OCCO2 (stereo unspecified)
inactive: [16] 95 % of control | [17] 108 % of control | [18] 97 % of control

CC(C)COC(=O)C#CC(=O)OCC(C)C
inactive: dose: 25.0 mg/kg/injection, schedule: Q01DX001 (ip), vehicle: water 111 % of control | dose: 50.0 mg/kg/injection, schedule: Q01DX001 (ip), vehicle: water 106 % of control | dose: 100.0 mg/kg/injection, schedule: Q01DX001 (ip), vehicle: water 116 % of control

c1ccc([Si]([O][Sn]([c]2ccccc2)([c]2ccccc2)[c]2ccccc2)(c2ccccc2)c2ccccc2)cc1
inactive: dose: 25.6 mg/kg/injection, schedule: Q04DX002 (ip), vehicle: saline with Tween-80 89 % of control | dose: 64.0 mg/kg/injection, schedule: Q04DX002 (ip), vehicle: saline with Tween-80 93 % of control | dose: 160.0 mg/kg/injection, schedule: Q04DX002 (ip), vehicle: saline with Tween-80 93 % of control | [7] 89 % of control

NC(=O)Nc1ccccc1O
inactive: dose: 75.0 mg/kg/injection, schedule: Q04DX002 (ip), vehicle: saline with Tween-80 102 % of control | dose: 150.0 mg/kg/injection, schedule: Q04DX002 (ip), vehicle: saline with Tween-80 87 % of control | dose: 300.0 mg/kg/injection, schedule: Q04DX002 (ip), vehicle: saline with Tween-80 97 % of control

CC1=C(N2CCN(c3ccc(Cl)cc3)CC2)C(=O)CC(C)(C)C1
inactive: [10] 97 % of control | [11] 101 % of control | [12] 103 % of control

CC(C)(C)NC(=O)C1CC2(C)CCC1C2(C)C (stereo unspecified)
inactive: dose: 75.0 mg/kg/injection, schedule: Q01DX001 (ip), vehicle: other 93 % of control | dose: 150.0 mg/kg/injection, schedule: Q01DX001 (ip), vehicle: other 93 % of control

CC(=O)Oc1c(C(C)(C)C)cc(C)cc1C(C)(C)C
inactive: dose: 50.0 mg/kg/injection, schedule: Q01DX009 (ip), vehicle: Klucel (hydroxypropylcellulose) (HPC) 100 % of control | [8] 100 % of control | [9] 103 % of control

CC1CC/C(=C\c2ccccc2)C(=O)/C1=C/c1ccccc1 (stereo unspecified)
inactive: dose: 25.0 mg/kg/injection, schedule: Q01DX009 (ip), vehicle: DMSO 92 % of control | dose: 50.0 mg/kg/injection, schedule: Q01DX009 (ip), vehicle: DMSO 94 % of control | dose: 100.0 mg/kg/injection, schedule: Q01DX009 (ip), vehicle: DMSO 94 % of control and 91 % of control | dose: 100.0 mg/kg/injection, schedule: Q04DX003 (ip), vehicle: DMSO 105 % of control | dose: 200.0 mg/kg/injection, schedule: Q01DX009 (ip), vehicle: DMSO 102 % of control | dose: 200.0 mg/kg/injection, schedule: Q04DX003 (ip), vehicle: DMSO 100 % of control | dose: 400.0 mg/kg/injection, schedule: Q04DX003 (ip), vehicle: DMSO 95 % of control

COc1cc(Cc2cnc(NC(C)=O)nc2NC(C)=O)cc(OC)c1OC
inactive: dose: 12.5 mg/kg/injection, schedule: Q01DX009 (ip), vehicle: saline with Tween-80 92 % of control | dose: 12.5 mg/kg/injection, schedule: Q04DX003 (ip), vehicle: saline with Tween-80 101 % of control | dose: 25.0 mg/kg/injection, schedule: Q01DX009 (ip), vehicle: saline with Tween-80 95 % of control | dose: 25.0 mg/kg/injection, schedule: Q04DX003 (ip), vehicle: saline with Tween-80 101 % of control | dose: 50.0 mg/kg/injection, schedule: Q01DX009 (ip), vehicle: saline with Tween-80 88 % of control | dose: 50.0 mg/kg/injection, schedule: Q04DX003 (ip), vehicle: saline with Tween-80 95 % of control

CN1C(c2ccccc2)NC(=O)C12CCN(CCCC(=O)c1ccccc1)CC2 (stereo unspecified)
inactive: [16] 100 % of control | [17] 96 % of control | [18] 100 % of control

CCOC(=O)Nc1ccc2c(c1)/C(=N/O)c1ccccc1-2
inactive: dose: 100.0 mg/kg/injection, schedule: Q01DX001 (ip), vehicle: carboxymethylcellulose (CMC) 94 % of control | dose: 200.0 mg/kg/injection, schedule: Q01DX001 (ip), vehicle: carboxymethylcellulose (CMC) 91 % of control | dose: 400.0 mg/kg/injection, schedule: Q01DX001 (ip), vehicle: carboxymethylcellulose (CMC) 91 % of control

Cc1nc2[nH]c(=O)[nH]c(=O)c2[nH]1
inactive: dose: 100.0 mg/kg/injection, schedule: Q04DX003 (ip), vehicle: saline with Tween-80 91 % of control | dose: 200.0 mg/kg/injection, schedule: Q04DX003 (ip), vehicle: saline with Tween-80 101 % of control | dose: 400.0 mg/kg/injection, schedule: Q04DX003 (ip), vehicle: saline with Tween-80 90 % of control

O=C1c2ccccc2-c2cccc3ccc(-c4ccccc4)c1c23
inactive: dose: 75.0 mg/kg/injection, schedule: Q01DX009 (ip), vehicle: Klucel (hydroxypropylcellulose) (HPC) 105 % of control | [13] 96 % of control | dose: 150.0 mg/kg/injection, schedule: Q01DX009 (ip), vehicle: Klucel (hydroxypropylcellulose) (HPC) 97 % of control | [14] 96 % of control | dose: 300.0 mg/kg/injection, schedule: Q01DX009 (ip), vehicle: Klucel (hydroxypropylcellulose) (HPC) 101 % of control | [15] 100 % of control

Cc1ccc(S(=O)(=O)OCC2OCOC2C2OCOC2CI)cc1 (stereo unspecified)
inactive: dose: 100.0 mg/kg/injection, schedule: Q01DX001 (ip), vehicle: saline with Tween-80 101 % of control | dose: 200.0 mg/kg/injection, schedule: Q01DX001 (ip), vehicle: saline with Tween-80 101 % of control | dose: 400.0 mg/kg/injection, schedule: Q01DX001 (ip), vehicle: saline with Tween-80 93 % of control

O=CC1(c2ccccc2)SCCCS1
inactive: [1] 106 % of control | [2] 97 % of control | [3] 100 % of control
